What all share (type): in vivo
Assay [1] relates to db/db mouse. Briefly: Kidney function in the db/db mouse model of type 2 diabetes: urine albumin (ELISA), urinary creatinine (Cobas Integra), 24-hour metabolic caging. The conditions noted are these: db/db mice, 50 mg/kg/day oral gavage; for albumin/creatinine ratio: vs db/db+V group. As to the method: Creatinine was determined using a Cobas Integra autoanalyzer. Excretion of urine albumin was measured by ELISA kit.
Urinary creatinine was determined using a Cobas Integra autoanalyzer.
Excretion of urine albumin was measured by ELISA kit.
The renoprotective effects of Urolithin A were assessed in a mouse model of type 2 diabetes (the db/db mouse).
A mouse model of diabetes was used endorsed by the Diabetic Complications Consortium (DiabComp/AMDCC), the db/db mouse model, which is obese and insulin resistant “type 2”.
Mice were purchased from The Jackson Laboratory (Stock No: 000642) in order to obtain sizeable cohorts to run groups in tandem, which is crucial for reliable testing of mitochondrial function. Eight to nine week-old male db/db mice (n=15 per group) received Urolithin A by oral gavage (50 mg/kg/day) for a duration of 10 weeks. Db/m (control) or db/db (diabetic) mice were randomized to the following treatments:
A suspension of 0.5% carboxymethylcellulose (CMC; Sigma #419303) was first prepared. Urolithin A (16.67 mg/ml) was prepared by dissolving in 0.5% CMC solution and left stirring at room temperature. Urolithin A was dosed at 50 mg/kg/day. The weights of the mice were used to calculate the dosage of Urolithin A to be administered to each mouse, based on weekly bodyweight measurements. Approximately 1001 of 0.5% CMC was given to mice daily in the vehicle groups.
At baseline, mid-point and one week prior to euthanasia, mice underwent metabolic caging for 24 hours to collect urine and to measure food and water intake. Body composition by EchoMRI was performed at baseline, mid-point and two weeks prior to euthanasia to determine fat mass and lean body mass. At baseline and week 9, an oral glucose tolerance test was performed to assess glucose handling. Fasting plasma glucose was measured using a glucose colorimetric assay kit (Cayman, Ann Arbor, USA) at baseline, 15 min and 60 min after glucose treatment. Blood pressure measurements were performed at week 10.
All analyses were performed by ANOVA followed by post hoc paired analysis using Tukey's least significant difference method, correcting for multiple comparisons. A value for p<0.05 was considered as statistically significant. A Z-score of 2 was used to exclude outliers.
One week prior to cull, 24-hour metabolic caging was performed to collect urine, and blood was collected from the submandibular vein. Urine and plasma creatinine was determined using the Cobas Integra autoanalyzer. Urine albumin was measured by ELISA (Bethyl, USA). Blood pressure was determined by tail cuff plethysmography.
Excretion of albumin in the urine over a 24-hour period was measured by ELISA kit (Bethyl). At the endpoint of the study, there was a significant increase in albuminuria in db/db mice when compared to db/m mice. […] Creatinine clearance was calculated from urine and plasma creatinine measured using the Creatinine plus ver.2 (CREP2) assay on a Cobas Integra 400 plus autoanalyzer (Roche Diagnostics). There was a decline in kidney function in db/db mice (Diabetic) as measured by an increase in albuminuria and reduced creatinine clearance at 18-19 weeks of age. Treatment of UA delayed the progression of albuminuria in the db/db mice.
On the technique in general: In an ELISA, binding on a coated surface is turned into a signal by an enzyme label.

In assay [2] the test system is db/db mouse. Briefly: Whole body composition (lean mass) by EchoMRI in db/db mice. The note with it: 50 mg/kg/day oral gavage, 10 weeks, vs db/db+V group. As to the method: The lean mass of muscles was measured using EchoMRI. Mice were purchased from The Jackson Laboratory (Stock No: 000642) in order to obtain sizeable cohorts to run groups in tandem, which is crucial for reliable testing of mitochondrial function. Eight to nine week-old male db/db mice (n=15 per group) received Urolithin A by oral gavage (50 mg/kg/day) for a duration of 10 weeks. Db/m (control) or db/db (diabetic) mice were randomized to the following treatments: A suspension of 0.5% carboxymethylcellulose (CMC; Sigma #419303) was first prepared. Urolithin A (16.67 mg/ml) was prepared by dissolving in 0.5% CMC solution and left stirring at room temperature. Urolithin A was dosed at 50 mg/kg/day. The weights of the mice were used to calculate the dosage of Urolithin A to be administered to each mouse, based on weekly bodyweight measurements. Approximately 1001 of 0.5% CMC was given to mice daily in the vehicle groups. At baseline, mid-point and one week prior to euthanasia, mice underwent metabolic caging for 24 hours to collect urine and to measure food and water intake. […] Fasting plasma glucose was measured using a glucose colorimetric assay kit (Cayman, Ann Arbor, USA) at baseline, 15 min and 60 min after glucose treatment. […] Whole body composition including lean mass and fat mass were measured using EchoMRI at baseline, midpoint and endpoint.

Assay [3] has as its system db/db mouse. The experiment in a line: Muscle mass of tibialis anterior and quadriceps by weighing in db/db mice. The conditions noted are these: 50 mg/kg/day oral gavage, 10 weeks, vs db/db+V group. As to the method: The muscle mass of the tibialis anterior was measured by weighing on a precision scale. […] The muscle mass of the quadriceps was measured by weighing on a precision scale. Mice were purchased from The Jackson Laboratory (Stock No: 000642) in order to obtain sizeable cohorts to run groups in tandem, which is crucial for reliable testing of mitochondrial function. Eight to nine week-old male db/db mice (n=15 per group) received Urolithin A by oral gavage (50 mg/kg/day) for a duration of 10 weeks. Db/m (control) or db/db (diabetic) mice were randomized to the following treatments: A suspension of 0.5% carboxymethylcellulose (CMC; Sigma #419303) was first prepared. Urolithin A (16.67 mg/ml) was prepared by dissolving in 0.5% CMC solution and left stirring at room temperature. Urolithin A was dosed at 50 mg/kg/day. The weights of the mice were used to calculate the dosage of Urolithin A to be administered to each mouse, based on weekly bodyweight measurements. Approximately 1001 of 0.5% CMC was given to mice daily in the vehicle groups. All analyses were performed by ANOVA followed by post hoc paired analysis using Tukey's least significant difference method, correcting for multiple comparisons. A value for p<0.05 was considered as statistically significant. […] Whole body composition including lean mass and fat mass were measured using EchoMRI at baseline, midpoint and endpoint. […]

Assay [4] concerns db/db mouse. Briefly: Urinary carnosine, anserine and S-adenosylmethionine, semi-quantitative, HILIC chromatography and ESI-orbitrap mass spectrometry, in db/db mice. The note with it: 50 mg/kg/day oral gavage, 10 weeks, vs db/db+V group. As to the method:
Urinary carnosine was determined in a semi-quantitative manner using cold methanol:water:chloroform (5:3:5 (v/v)) extraction to separate the polar metabolites and apolar metabolites. In addition, a protein layer remained in the middle between the two phases. The polar phase was dried overnight in a vacuum centrifuge at 4° C. and 5 mbar, and was dissolved in 60 μl 60% (v/v) acetonitrile:water prior to analysis. The protein layer was quantified with a bicinchoninic acid (BCA) assay (ThermoFisher Scientific) and used for later normalization of the metabolite concentrations. Two microliters of each sample were injected into a hydrophilic interaction chromatography (HILIC) analytical column. The separation was achieved by applying a linear solvent gradient. As mobile phase, solvent A was H2O with 10 mM ammonium acetate (NH4Ac) and 0.04% (v/v) ammonium hydroxide (NH4OH), pH ˜9.3, and solvent B was acetonitrile (ACN). The eluting metabolites, including carnosine, were analyzed with an orbitrap mass spectrometer (Orbitrap Fusion Lumos Tribrid, Thermo Scientific) equipped with a heated electrospray ionisation (H-ESI) source. […]
Urinary anserine was determined in a semi-quantitative manner using cold methanol:water:chloroform (5:3:5 (v/v)) extraction to separate the polar metabolites and apolar metabolites. […] The protein layer was quantified with a bicinchoninic acid (BCA) assay (ThermoFisher Scientific) and used for later normalization of the metabolite concentrations. […] The eluting metabolites, including anserine, were analyzed with an orbitrap mass spectrometer (Orbitrap Fusion Lumos Tribrid, Thermo Scientific) equipped with a heated electrospray ionization (H-ESI) source. […]
Urinary S-adenosylmethionine was determined in a semi-quantitative manner using cold methanol:water:chloroform (5:3:5 (v/v)) extraction to separate the polar metabolites and apolar metabolites. […] The protein layer was quantified with a bicinchoninic acid (BCA) assay (ThermoFisher Scientific) and used for later normalization of the metabolite concentrations. […]

Assay [5] has as its system db/db mouse. Briefly: Femur bone mass by weighing in db/db mice. The note with it: 50 mg/kg/day oral gavage, 10 week treatment, vs db/db+V group. The procedure: The bone femur mass was determined by weighing on a precision scale. Mice were purchased from The Jackson Laboratory (Stock No: 000642) in order to obtain sizeable cohorts to run groups in tandem, which is crucial for reliable testing of mitochondrial function. Eight to nine week-old male db/db mice (n=15 per group) received Urolithin A by oral gavage (50 mg/kg/day) for a duration of 10 weeks. Db/m (control) or db/db (diabetic) mice were randomized to the following treatments: A suspension of 0.5% carboxymethylcellulose (CMC; Sigma #419303) was first prepared. Urolithin A (16.67 mg/ml) was prepared by dissolving in 0.5% CMC solution and left stirring at room temperature. Urolithin A was dosed at 50 mg/kg/day. The weights of the mice were used to calculate the dosage of Urolithin A to be administered to each mouse, based on weekly bodyweight measurements. Approximately 1001 of 0.5% CMC was given to mice daily in the vehicle groups. All analyses were performed by ANOVA followed by post hoc paired analysis using Tukey's least significant difference method, correcting for multiple comparisons. A value for p<0.05 was considered as statistically significant. A Z-score of 2 was used to exclude outliers. Left and right femur bones were collected at the end of study, after 10 week treatment, and both femurs were cleaned and snap frozen, weighed and stored at −80° C.

Regarding `O=c1oc2cc(O)ccc2c2ccc(O)cc12` [UA, 3,8-dihydroxyurolithin], the urinary creatinine result in the assay on db/db mouse [1] (10 weeks, vs vehicle-treated group) was “higher”. Also, in the assay with db/db mouse [1] (after 5 weeks of treatment (midpoint)), the albumin/creatinine ratio entry is on record as “significantly decreased”. Moreover, in the assay on db/db mouse [1] (after 10 weeks of treatment (endpoint)), the albumin/creatinine ratio result is “significantly decreased”. In the assay on db/db mouse [1] (at midpoint (5 weeks)), the “albuminuria (24-hour urine albumin excretion)” value is reported as “did affect albuminuria”. In the assay with db/db mouse [1] (baseline to 10 weeks, vs vehicle-treated counterparts), the progression of albuminuria result was “significantly delayed”. In the assay on db/db mouse [2], the lean mass entry was “significantly increased”. In the assay on db/db mouse [3], the “muscle mass of the quadriceps” value was “significantly increased” and the “muscle mass of the tibialis anterior” value is reported as “significantly increased”. Moreover, in the assay with db/db mouse [4], the “levels of urinary S-adenosylmethionine (SAM)” value is listed as “significantly increased”, the “levels of urinary anserine” value is listed as “significantly increased” and the “levels of urinary carnosine” value is “significantly increased”. The femur bone mass entry in the assay on db/db mouse [5] was “significantly increased”.

The record behind these values is patent US20250049754A1, “COMPOSITIONS COMPRISING UROLITHIN FOR TREATING MUSCLE DECLINE AND A KIDNEY DYSFUNCTION” (SOCIETE DES PRODUITS NESTLE S.A., priority 2021, published 2025).
